According to patent US9212130B2, “Heterocyclic derivative and pharmaceutical composition comprising the same” (SHIONOGI & CO., LTD., priority 2010, dated 2015):

Key:
[1] = target: human P2X3 receptor (Homo sapiens (Human), UniProt P56373); assay: Evaluation of human P2X3 receptor inhibitory activity (ATP-induced Fluo-3 fluorescence, FDSS 3000); type: cell-based; conditions: C6BU-1 cell transfected with human P2X3 receptor gene
In short: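 Human P2X3 inhibition read as ATP-evoked Fluo-3 calcium fluorescence; compound preincubated, then 50 nM ATP solution (concentration as dispensed) added and fluorescence followed 3 min. Response taken as peak-to-baseline fluorescence ratio per well; IC50 derived from concentration–response.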

[2] = Bioavailability (BA) test; type: in vivo; conditions: plasma; Mice or SD rats; oral 0.3 to 30 mg/kg vs intravenous 0.5 to 10 mg/kg; from AUCs
Description: Materials and Methods for Experiment of BA
• (1) Animals: Mice or SD rats were used • (2) Breeding conditions: Mice or SD rats were allowed to freely take solid food and sterilized tap water. • (3) Dose and grouping: orally or intravenously administered at a predetermined dose; grouping was as follows (Dose depends on the compound) Oral administration: 0.3 to 30 mg/kg (n=2 to 3) Intravenous administration: 0.5 to 10 mg/kg (n=2 to 3) • (4) Preparation of dosing solution: for oral administration, in a solution or a suspension state; for intravenous administration, in a solubilized state • (5) Administration method: in oral administration, forcedly administer into ventriculus with oral probe; in intravenous administration, administer from caudal vein with a needle-equipped syringe • (6) Evaluation items: blood was collected over time, and the plasma concentration of drug was measured by LC/MS/MS • (7) Statistical analysis: regarding the transition of the plasma concentration of the present compound, the area under the plasma concentration-time curve (AUC) was calculated by non-linear least squares program WinNonlin (Registered trade name), and the bioavailability (BA) was calculated from the AUCs of the oral administration group and intravenous administration group

[3] = Solubility test; type: physicochemical; conditions: 25 °C, other biorelevant, kinetic from dmso stock
Description: The solubility of a compound was determined under a condition in which 1% DMSO was added. 10 mmol/L compound solution was prepared using DMSO, and then 6 μL of the compound solution was added to 594 μL of artificial intestinal juice in […] (to 250 mL of 0.2 mol/L potassium dihydrogen phosphate reagent solution was added 118 mL of 0.2 mol/L NaOH reagent solution and water to provide a final volume of 1000 mL). After standing at 25 degrees Celsius for 16 hours, the mixed solution was filtrated with suction. The filtrate was diluted twice with methanol/water (1/1) and then a concentration in the filtration was measured with HPLC or LC/MS/MS by the absolute calibration method.

[4] = Metabolism stability test (pooled human hepatic microsomes); type: in vitro ADME; conditions: human liver microsomes 0.5 mg protein/mL; 37° C., 30 minutes; 1 mmol/L NADPH; compound concentration 0.5 μmol/L
Description: Using commercially available pooled human hepatic microsomes, a test compound was reacted for a constant time, a remaining rate was calculated by comparing a reacted sample and an unreacted sample, thereby, a degree of metabolism in liver was assessed.
A reaction was performed (oxidative reaction) at 37° C. for 0 minute or 30 minutes in the presence of 1 mmol/L NADPH in 0.2 mL of a buffer (50 mmol/L tris-HCl pH 7.4, 150 mmol/L potassium chloride, 10 mmol/L magnesium chloride) containing 0.5 mg protein/mL of human liver microsomes. After the reaction, 50 μL of the reaction solution was added to 100 μL of a methanol/acetonitrile 1/1 (v/v), mixed and centrifuged at 3000 rpm for 15 minutes. The test compound in the supernatant was quantified by LC/MS/MS, and a remaining amount of the test compound after the reaction was calculated, letting a compound amount at 0 minute reaction time to be 100%.

[5] = target: CYP2C9 (Homo sapiens (Human), UniProt P11712); assay: CYP inhibition test, tolbutamide methyl-hydroxylation; type: in vitro ADME; conditions: pooled human hepatic microsome; 100 μmol/L tolbutamide; given as 'five kinds'
Description: (§1) Using commercially available pooled human hepatic microsome, and employing, as markers, 7-ethoxyresorufin O-deethylation (CYP1A2), tolbutamide methyl-hydroxylation (CYP2C9), mephenyloin 4′-hydroxylation (CYP2C19), dextromethorphan O-demethylation (CYP2D6), and terfenedine hydroxylation as typical substrate metabolism reactions of human main five ([…] enzyme forms (CYP1A2, 2C9, 2C19, 2D6, 3A4), an inhibitory degree of each metabolite production amount by a test compound was assessed.
(§2) The reaction conditions were as follows: substrate, 0.5 μmol/L ethoxyresorufin (CYP1A2), 100 μmol/L tolbutamide (CYP2C9), 50 μmol/L S-mephenitoin (CYP2C19), 5 μmol/L dextromethorphan (CYP2D6), 1 μmol/L terfenedine (CYP3A4); reaction time, 15 minutes; reaction temperature, 37° C.; enzyme, pooled human hepatic microsome 0.2 mg protein/mL; test drug concentration, 1.0. 5.0, 10, 20 μmol/L (four points).
(§3) Each five kinds of substrates, human hepatic microsome, or a test drug in 50 mmol/L Hepes buffer as a reaction solution was added to a 96-well plate at the composition as described above. NADPH, as a cofactor was added to initiate metabolism reactions as markers and, after the incubation at 37° C. for 15 minutes, a methanol/acetonitrile=1/1 (v/v) solution was added to stop the reaction. After the centrifugation at 3000 rpm for 15 minutes, resorufin (CYP1A2 metabolite) in the supernatant was quantified by a fluorescent multilabel counter and tributamide hydroxide (CYP2CP metabolite), mephenyloin 4′ hydroxide (CYP2C19 metabolite), […], and terfenadine alcohol (CYP3A4 metabolite) were quantified by LC/MS/MS.
(§4) Addition of only DMSO being a solvent dissolving a drug to a reaction system was adopted as a control (100%), remaining activity (%) was calculated at each concentration of a test drug added as the solution and IC50 was calculated by reverse presumption by a logistic model using a concentration and an inhibition rate.

[6] = target: CYP1A2 (Homo sapiens (Human), UniProt P05177); assay: CYP inhibition test, 7-ethoxyresorufin O-deethylation; type: in vitro ADME; conditions: pooled human hepatic microsome; 0.5 μmol/L ethoxyresorufin; given as 'five kinds'
Description: as §1, §2, §3, §4

[7] = target: T1, CYP3A4 (Homo sapiens (Human), UniProt P08684); assay: CYP inhibition test, terfenedine hydroxylation; type: in vitro ADME; conditions: pooled human hepatic microsome; 1 μmol/L terfenedine; given as 'five kinds'
Description: as §1, §2, §3, §4

[8] = target: CYP2D6 (Homo sapiens (Human), UniProt P10635); assay: CYP inhibition test, dextromethorphan O-demethylation; type: in vitro ADME; conditions: pooled human hepatic microsome; 5 μmol/L dextromethorphan; given as 'five kinds'
Description: as §1, §2, §3, §4

[9] = target: CYP2C19 (Homo sapiens (Human), UniProt P33261); assay: CYP inhibition test, mephenyloin 4'-hydroxylation; type: in vitro ADME; conditions: pooled human hepatic microsome; 50 μmol/L S-mephenitoin; given as 'five kinds'
Description: as §1, §2, §3, §4

[10] = target: T1, CYP3A4; assay: CYP3A4 fluorescent MBI test; type: in vitro ADME; conditions: pre-reaction time 0 or 30 minutes; substrate 7-BFC; CYP3A4 expressed in Escherichia coli
Description: The CYP3A4 fluorescent MBI test is a test of investigating enhancement of CYP3A4 inhibition of a compound by a metabolism reaction, and the test is performed using, as CYP3A4 enzyme expressed in Escherichia coli and employing, as an index, a reaction in which 7-benzyloxytrifluoromethylchmarin (BFC) is debenzylated by the CYP3A4 enzyme to produce a metabolite, 7-hydroxytrifluoromethylchmarin (HFC) emitting fluorescent light.
The reaction conditions were as follows: substrate, 5.6 μmol/L 7-BFC; pre-reaction time, 0 or 30 minutes; reaction time, 15 minutes; reaction temperature, 25° C.
An enzyme in a K-Pi buffer (pH 7.4) and a test drug solution as a pre-reaction solution were added to a 96-well plate at the composition of the pre-reaction, a part of it was transferred to another 96-well plate so that it was 1/10 diluted by a substrate in a K-Pi buffer, NADPH as a co-factor was added to initiate a reaction as an index (without preincubation) and, after a predetermined time of a reaction, acetonitrile: 0.5 mol/L Tris (trishydroxyaminomethane)=4:1 was added to stop the reaction. In addition, NADPH was added to a remaining preincubation solution to initiate a preincubation (with preincubation) and, after a predetermined time of a preincubation, a part was transferred to another plate so that it was 1/10 diluted with a substrate and a K-Pi buffer to initiate a reaction as an index, After a predetermined time of a reaction, acetonitrile: 0.5 mol/L Tris (trishydroxyaminomethane)=4:1 was added to stop the reaction. For the plate on which each index reaction had been performed, a fluorescent value of 7-HFC which is a metabolite was measured with a fluorescent plate reader. (Ex=420 nm, Em=535 nm).
Addition of only DMSO which is a solvent dissolving a drug to a reaction system was adopted as a control (100%), remaining activity (%) was calculated at each concentration of a test drug added as the solution, and IC50 was calculated by reverse-presumption by a logistic model using a concentration and an inhibition rate. When a difference between IC50 values is 5 or more, this was defined as (+) and, when the difference is 3 μmol/L or less, this was defined as (−).

[11] = artificial intestinal juice (phosphate buffer) with 1% DMSO, artificial intestinal juice in pH 8.8, 25 degrees Celsius for 16 hours

Sequence of CYP1A2 (P05177 whole entry): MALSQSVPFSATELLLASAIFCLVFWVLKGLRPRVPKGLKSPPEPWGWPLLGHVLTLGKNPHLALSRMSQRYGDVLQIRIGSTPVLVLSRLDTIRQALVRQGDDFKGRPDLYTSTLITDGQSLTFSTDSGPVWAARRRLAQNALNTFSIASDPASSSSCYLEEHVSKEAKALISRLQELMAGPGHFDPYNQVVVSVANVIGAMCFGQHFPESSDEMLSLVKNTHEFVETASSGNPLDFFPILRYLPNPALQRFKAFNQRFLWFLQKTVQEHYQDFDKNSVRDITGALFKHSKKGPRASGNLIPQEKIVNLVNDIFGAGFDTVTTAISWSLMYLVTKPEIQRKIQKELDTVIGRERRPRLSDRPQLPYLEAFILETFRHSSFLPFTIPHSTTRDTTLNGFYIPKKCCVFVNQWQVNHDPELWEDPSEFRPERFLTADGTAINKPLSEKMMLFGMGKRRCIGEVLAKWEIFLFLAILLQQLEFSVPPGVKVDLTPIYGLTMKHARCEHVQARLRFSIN
Sequence of human P2X3 receptor (P56373 whole entry): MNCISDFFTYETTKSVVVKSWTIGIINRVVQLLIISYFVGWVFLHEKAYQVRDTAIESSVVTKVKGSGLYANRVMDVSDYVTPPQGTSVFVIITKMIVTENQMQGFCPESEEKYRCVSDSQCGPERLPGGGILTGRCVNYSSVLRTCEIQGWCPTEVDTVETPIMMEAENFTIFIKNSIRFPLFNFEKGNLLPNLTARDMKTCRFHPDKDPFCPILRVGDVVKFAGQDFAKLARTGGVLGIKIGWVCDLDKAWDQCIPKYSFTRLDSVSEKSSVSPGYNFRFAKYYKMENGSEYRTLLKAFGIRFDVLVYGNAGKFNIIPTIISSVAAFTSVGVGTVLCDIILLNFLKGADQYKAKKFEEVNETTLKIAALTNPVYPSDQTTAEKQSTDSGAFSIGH
T1 sequence (P08684 whole entry): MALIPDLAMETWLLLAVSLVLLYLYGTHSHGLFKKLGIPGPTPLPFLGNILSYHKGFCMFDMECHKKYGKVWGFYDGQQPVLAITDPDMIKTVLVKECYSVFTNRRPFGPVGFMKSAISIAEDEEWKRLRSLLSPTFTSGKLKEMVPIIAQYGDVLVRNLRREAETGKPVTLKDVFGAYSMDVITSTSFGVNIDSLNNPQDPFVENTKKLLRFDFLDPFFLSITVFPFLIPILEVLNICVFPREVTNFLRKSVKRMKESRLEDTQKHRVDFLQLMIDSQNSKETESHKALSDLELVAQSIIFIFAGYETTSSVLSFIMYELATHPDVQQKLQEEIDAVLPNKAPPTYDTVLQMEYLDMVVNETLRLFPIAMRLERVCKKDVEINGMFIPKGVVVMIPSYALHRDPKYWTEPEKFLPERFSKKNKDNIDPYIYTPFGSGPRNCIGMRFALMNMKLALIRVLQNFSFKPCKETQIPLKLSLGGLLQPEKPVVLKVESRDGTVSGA
Sequence of CYP2D6 (P10635 whole entry): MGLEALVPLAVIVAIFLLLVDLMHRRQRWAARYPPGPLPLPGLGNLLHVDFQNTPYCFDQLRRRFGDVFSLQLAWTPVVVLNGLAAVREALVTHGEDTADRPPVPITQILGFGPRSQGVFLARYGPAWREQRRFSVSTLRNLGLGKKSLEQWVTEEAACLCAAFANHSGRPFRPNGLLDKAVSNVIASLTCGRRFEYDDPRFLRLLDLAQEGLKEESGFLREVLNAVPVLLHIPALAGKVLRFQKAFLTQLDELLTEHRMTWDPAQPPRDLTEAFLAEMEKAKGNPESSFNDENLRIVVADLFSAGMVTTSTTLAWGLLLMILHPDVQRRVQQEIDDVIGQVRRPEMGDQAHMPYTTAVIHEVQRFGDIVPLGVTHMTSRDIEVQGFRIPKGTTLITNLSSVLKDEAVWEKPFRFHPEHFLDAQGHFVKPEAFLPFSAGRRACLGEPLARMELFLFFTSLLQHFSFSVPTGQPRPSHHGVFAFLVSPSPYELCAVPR
Sequence of CYP2C19 (P33261 whole entry): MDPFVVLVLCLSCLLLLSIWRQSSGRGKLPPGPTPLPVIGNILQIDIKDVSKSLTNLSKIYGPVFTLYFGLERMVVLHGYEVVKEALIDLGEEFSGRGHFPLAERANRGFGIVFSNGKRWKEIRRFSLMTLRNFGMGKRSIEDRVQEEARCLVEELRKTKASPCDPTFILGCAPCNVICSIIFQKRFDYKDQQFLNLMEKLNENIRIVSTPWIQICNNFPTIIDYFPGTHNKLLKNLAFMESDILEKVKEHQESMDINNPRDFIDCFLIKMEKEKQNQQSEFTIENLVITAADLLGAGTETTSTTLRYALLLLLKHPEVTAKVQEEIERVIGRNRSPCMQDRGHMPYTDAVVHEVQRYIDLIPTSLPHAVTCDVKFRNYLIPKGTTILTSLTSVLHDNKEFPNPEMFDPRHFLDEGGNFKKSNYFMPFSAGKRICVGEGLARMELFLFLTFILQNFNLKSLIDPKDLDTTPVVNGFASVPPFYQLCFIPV
Sequence of CYP2C9 (P11712 whole entry): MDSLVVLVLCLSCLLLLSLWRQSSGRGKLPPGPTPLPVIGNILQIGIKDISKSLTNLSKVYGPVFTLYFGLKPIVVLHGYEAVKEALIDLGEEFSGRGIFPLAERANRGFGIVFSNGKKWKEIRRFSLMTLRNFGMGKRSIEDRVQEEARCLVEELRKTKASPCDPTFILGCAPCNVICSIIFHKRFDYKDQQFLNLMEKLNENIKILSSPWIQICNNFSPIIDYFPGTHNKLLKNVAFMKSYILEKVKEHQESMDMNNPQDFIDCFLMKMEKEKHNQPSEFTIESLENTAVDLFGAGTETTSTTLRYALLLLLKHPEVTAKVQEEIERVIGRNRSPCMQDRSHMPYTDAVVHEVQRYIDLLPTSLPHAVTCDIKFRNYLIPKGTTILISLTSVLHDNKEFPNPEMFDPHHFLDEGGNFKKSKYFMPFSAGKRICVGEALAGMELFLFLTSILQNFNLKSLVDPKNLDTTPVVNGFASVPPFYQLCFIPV

Question: Which IC50 [1] does the source give for `CC(C)Oc1ccc(Nc2cc(=O)n(CC(C)(C)C(=O)O)c(=O)n2Cc2ccc(Cl)cc2)cc1F` [I-021] here?
Answer: 19 nM

Question: What about the bioavailability [2] of the same compound?
Answer: 49.1%

Question: With `CC(C)Oc1ccc(Nc2cc(=O)n(CC(=O)NCCO)c(=O)n2Cc2ccc(Cl)cc2)cc1F` [I-112, 1-(4-chlorobenzyl)-6-(3-fluoro-4-isopropoxyphenylamino)-3-(2-hydroxyethylcarbamoylmethyl)pyrimidine-2,4(1H,3H)-dion] as the compound, how does the IC50 [1] read?
Answer: 14 nM

Question: And the solubility at 16 h ([3]; 1% DMSO, artificial intestinal juice in pH 8.8, 25 degrees Celsius for 16 hours)?
Answer: > 50 µM

Question: With `CC(C)Oc1ccc(Nc2nc(=O)c(CCC(=O)O)cn2Cc2ccc(Cl)cc2)cc1Cl` [I-117] as the compound, how does the solubility at 16 h [3, 11] read?
Answer: > 50 µM

Question: For `CCOC(=O)c1cn(Cc2ccc(Cl)cc2)c(Nc2ccc(OC(C)C)c(F)c2)nc1=O` [I-131, 1-(4-chlorobenzyl)-2-(3-fluoro-4-isopropoxyphenylamino)-5-(ethoxycarbonyl)pyrimidine-4(1H)-one], which remaining rate [4] is on record?
Answer: 92%

Question: With `Cc1cc(Nc2cc(=O)n(C[C@H](C)C(=O)O)c(=O)n2Cc2ccc(Cl)cc2)ccc1OC(C)C` [I-215] as the compound, how does the IC50 [1] read?
Answer: 24 nM

Question: What about the bioavailability [2] of the same compound?
Answer: 49.7%

Question: For `CC(C)Oc1ccc(Nc2nc(=O)c(C(=O)NC3CCOCC3)cn2Cc2ccc(Cl)cc2)cc1F` [I-241], which IC50 [5] is on record?
Answer: > 20000 nM

Question: And the IC50 [1]?
Answer: 31 nM

Question: And the IC50 [6]?
Answer: > 20000 nM

Question: And the remaining rate [4]?
Answer: 88%

Question: And the IC50 [7]?
Answer: > 20000 nM

Question: What about the IC50 [8] of the same compound?
Answer: > 20000 nM

Question: And the IC50 [9]?
Answer: > 20000 nM

Question: Which results are given for `Cc1nc2ccc(Nc3nc(=O)c(C(=O)NC4CCOCC4)cn3Cc3ccc(Cl)cc3)cc2s1` [I-286]?
Answer: IC50 [1]: 8 nM; bioavailability [2]: 41.7%

Question: With `CC(C)Oc1ccc(Nc2ncc(NC(=O)NC3CCOCC3)c(=O)n2Cc2ccc(Cl)cc2)cc1F` [I-289] as the compound, how does the IC50 [1] read?
Answer: 7 nM

Question: What about the remaining rate [4] of the same compound?
Answer: 89%

Question: With `Cc1nc2ccc(Nc3nc(=O)c(C(=O)NCCCO)cn3Cc3ccc(Cl)cc3)cc2s1` [I-299] as the compound, how does the IC50 [1] read?
Answer: 111 nM

Question: And the solubility at 16 h [3, 11]?
Answer: > 50 µM

Question: Which IC50 [5] does the source give for `O=C(O)c1cncc(Oc2ccc(Nc3ncc(NC(=O)C4CCOCC4)c(=O)n3Cc3ccc(Cl)cc3)cc2)c1` [I-305] here?
Answer: > 20000 nM

Question: What about the IC50 [1] of the same compound?
Answer: 4 nM

Question: What about the IC50 [6] of the same compound?
Answer: > 20000 nM

Question: And the IC50 difference [10]?
Answer: < 3000 nM

Question: What about the IC50 [7] of the same compound?
Answer: > 20000 nM

Question: What about the IC50 [8] of the same compound?
Answer: > 20000 nM

Question: And the IC50 [9]?
Answer: > 20000 nM

Question: And the solubility at 16 h [3, 11]?
Answer: > 50 µM

Question: Which IC50 [1] does the source give for `Cc1ncc(Oc2ccc(Nc3ncc(NC(=O)C4CCOCC4)c(=O)n3Cc3ccc(Cl)cc3)cc2)cc1F` [I-313] here?
Answer: 3 nM

Question: What about the bioavailability [2] of the same compound?
Answer: 28.5%

Question: For `CCn1c(=O)cc(Nc2ccc(Oc3cncc(C(=O)O)c3)cc2)n(Cc2ccc(Cl)cc2)c1=O` [I-315], which IC50 [1] is on record?
Answer: 6 nM

Question: And the IC50 difference [10]?
Answer: < 3000 nM

Question: And the remaining rate [4]?
Answer: 105%

Question: Which IC50 [5] does the source give for `Cc1nc2ccc(Nc3cc(=O)n(CCCC(=O)O)c(=O)n3Cc3ccc(Cl)cc3)cc2s1` [I-354] here?
Answer: > 20000 nM

Question: And the IC50 [1]?
Answer: 94 nM

Question: And the IC50 [6]?
Answer: > 20000 nM

Question: And the IC50 difference [10]?
Answer: < 3000 nM

Question: What about the IC50 [7] of the same compound?
Answer: > 20000 nM

Question: What about the IC50 [8] of the same compound?
Answer: > 20000 nM

Question: What about the IC50 [9] of the same compound?
Answer: > 20000 nM

Question: Which results are given for `CC(=O)N1CCC(C(=O)Nc2cnc(Nc3ccc4nc(C)sc4c3)n(Cc3ccc(Cl)cc3)c2=O)CC1` [I-356]?
Answer: IC50 [1]: 18 nM; solubility at 16 h [3, 11]: > 50 µM

Question: With `O=C(O)c1cccc(Oc2ccc(Nc3ncc(NC(=O)C4CCOCC4)c(=O)n3Cc3ccc(Cl)cc3)cc2)c1` [I-359] as the compound, how does the IC50 [1] read?
Answer: 2 nM

Question: And the IC50 difference [10]?
Answer: < 3000 nM

Question: What about the remaining rate [4] of the same compound?
Answer: 101%
